Data reported in patent publication US8592175B2, “Nitroreductase enzymatic substrates” (bioMérieux, S.A., priority 2009, dated 2013).

Key:
Assay in all cases: Color, fluorescence and growth of colonies on Columbia medium with nitroreductase substrate
Type in all cases: cell-based
Settings in all cases: 40 mg substrate in 400 ml Columbia medium, 24 hours at 37° C.
[1] = system: Bacillus subtilis NCTC 9 372; design: key to Growth: NG: no growth; 0.5: low growth; 1: moderate growth; 2: good growth; key to Fluo.: fluorescence of the colonies / Col.: color of the colonies: —: no color/fluorescence
Protocol: (§1) 40 mg of each of the substrates were dissolved in 4 ml of dimethylsulfoxide and added to 400 ml of previously autoclaved Columbia medium. The 5 media were distributed in Petri dishes 90 mm in diameter at the rate of 20 ml per dish. Seventeen strains of microorganisms obtained from collections and belonging to various species of bacteria and yeasts are inoculated as spots of about 10 000 colony forming units. The media are incubated for 24 hours at 37° C. and then the colonies formed are examined visually and under a UV lamp at 365 nm.

[2] = system: Candida albicans ATCC 90 028; design: key to Growth: NG: no growth; 0.5: low growth; 1: moderate growth; 2: good growth; key to Fluo.: fluorescence of the colonies / Col.: color of the colonies: —: no color/fluorescence
Protocol: as §1

[3] = system: Candida glabrata NCPF 3 943; design: key to Growth: NG: no growth; 0.5: low growth; 1: moderate growth; 2: good growth; key to Fluo.: fluorescence of the colonies / Col.: color of the colonies: —: no color/fluorescence
Protocol: as §1

[4] = system: Enterococcus faecalis NCTC 775; design: key to Growth: NG: no growth; 0.5: low growth; 1: moderate growth; 2: good growth; key to Fluo.: fluorescence of the colonies / Col.: color of the colonies: —: no color/fluorescence
Protocol: as §1

[5] = system: Enterococcus faecium NCTC 7 171; design: key to Growth: NG: no growth; 0.5: low growth; 1: moderate growth; 2: good growth; key to Fluo.: fluorescence of the colonies / Col.: color of the colonies: —: no color/fluorescence
Protocol: as §1

[6] = system: Listeria monocytogenes NCTC 11 994; design: key to Growth: NG: no growth; 0.5: low growth; 1: moderate growth; 2: good growth; key to Fluo.: fluorescence of the colonies / Col.: color of the colonies: —: no color/fluorescence
Protocol: as §1

[7] = system: Providencia rettgeri NCTC 7 475; design: key to Growth: NG: no growth; 0.5: low growth; 1: moderate growth; 2: good growth; key to Fluo.: fluorescence of the colonies / Col.: color of the colonies: —: no color/fluorescence
Protocol: as §1

[8] = system: Pseudomonas aeruginosa NCTC 10 662; design: key to Growth: NG: no growth; 0.5: low growth; 1: moderate growth; 2: good growth; key to Fluo.: fluorescence of the colonies / Col.: color of the colonies: —: no color/fluorescence
Protocol: as §1

[9] = system: Salmonella typhimurium NCTC 74; design: key to Growth: NG: no growth; 0.5: low growth; 1: moderate growth; 2: good growth; key to Fluo.: fluorescence of the colonies / Col.: color of the colonies: —: no color/fluorescence
Protocol: as §1

[10] = system: Staphylococcus aureus NCTC 11 939; design: key to Growth: NG: no growth; 0.5: low growth; 1: moderate growth; 2: good growth; key to Fluo.: fluorescence of the colonies / Col.: color of the colonies: —: no color/fluorescence
Protocol: as §1

[11] = system: Staphylococcus aureus NCTC 6 571; design: key to Growth: NG: no growth; 0.5: low growth; 1: moderate growth; 2: good growth; key to Fluo.: fluorescence of the colonies / Col.: color of the colonies: —: no color/fluorescence
Protocol: as §1

[12] = system: Staphylococcus epidermidis NCTC 11 047; design: key to Growth: NG: no growth; 0.5: low growth; 1: moderate growth; 2: good growth; key to Fluo.: fluorescence of the colonies / Col.: color of the colonies: —: no color/fluorescence
Protocol: as §1

[13] = system: Streptococcus pyogenes NCTC 8 306; design: key to Growth: NG: no growth; 0.5: low growth; 1: moderate growth; 2: good growth; key to Fluo.: fluorescence of the colonies / Col.: color of the colonies: —: no color/fluorescence
Protocol: as §1

[14] = system: Yersinia enterocolitica NCTC 11 176; design: key to Growth: NG: no growth; 0.5: low growth; 1: moderate growth; 2: good growth; key to Fluo.: fluorescence of the colonies / Col.: color of the colonies: —: no color/fluorescence
Protocol: as §1

[15] = system: Enterobacter cloacae NCTC 11 936; design: key to Growth: NG: no growth; 0.5: low growth; 1: moderate growth; 2: good growth
Protocol: as §1

[16] = system: Escherichia coli NCTC 10 418; design: key to Growth: NG: no growth; 0.5: low growth; 1: moderate growth; 2: good growth
Protocol: as §1

[17] = system: Serratia marcescens NCTC 10 211; design: key to Growth: NG: no growth; 0.5: low growth; 1: moderate growth; 2: good growth
Protocol: as §1

- Col.: color of the colonies ([4]; examined visually): Rust
- Col.: color of the colonies ([5]; examined visually): Rust
- Col.: color of the colonies ([6]; examined visually): Rust
- Col.: color of the colonies ([15]; examined visually): Rust
Compound: C[n+]1ccc(C=Cc2ccc([N+](=O)[O-])cc2)c2ccccc21.[I-] [4NSMQ^+I, 4-(4′-nitrostyryl)-N-methylquinolinium iodide]
- Growth [1]: NG
- Fluo.: fluorescence of the colonies ([1]; UV lamp at 365 nm): —
- Col.: color of the colonies ([1]; examined visually): —
- Growth [2]: NG
- Fluo.: fluorescence of the colonies ([2]; UV lamp at 365 nm): —
- Col.: color of the colonies ([2]; examined visually): —
- Growth [3]: 0.5
- Fluo.: fluorescence of the colonies ([3]; UV lamp at 365 nm): —
- Col.: color of the colonies ([3]; examined visually): —
- Growth [4]: 1
- Fluo.: fluorescence of the colonies ([4]; UV lamp at 365 nm): —
- Growth [5]: 1
- Fluo.: fluorescence of the colonies ([5]; UV lamp at 365 nm): —
- Growth [6]: 1
- Fluo.: fluorescence of the colonies ([6]; UV lamp at 365 nm): —
- Growth [7]: 2
- Fluo.: fluorescence of the colonies ([7]; UV lamp at 365 nm): —
- Col.: color of the colonies ([7]; examined visually): Rust e
- Growth [8]: 2
- Fluo.: fluorescence of the colonies ([8]; UV lamp at 365 nm): —
- Growth [9]: 1
- Fluo.: fluorescence of the colonies ([9]; UV lamp at 365 nm): —
- Growth [10]: NG
- Fluo.: fluorescence of the colonies ([10]; UV lamp at 365 nm): —
- Col.: color of the colonies ([10]; examined visually): —
- Growth [11]: NG
- Fluo.: fluorescence of the colonies ([11]; UV lamp at 365 nm): —
- Col.: color of the colonies ([11]; examined visually): —
- Growth [12]: 1
- Fluo.: fluorescence of the colonies ([12]; UV lamp at 365 nm): —
- Col.: color of the colonies ([12]; examined visually): —
- Growth [13]: NG
- Fluo.: fluorescence of the colonies ([13]; UV lamp at 365 nm): —
- Col.: color of the colonies ([13]; examined visually): —
- Growth [14]: 1
- Fluo.: fluorescence of the colonies ([14]; UV lamp at 365 nm): —
- Col.: color of the colonies ([14]; examined visually): Rust
- Growth [15]: 2
- Growth [16]: 2
- Growth [17]: 2
